Consider 17 compounds from patent publication US8436004B2, “Bicycloaniline derivative” (MSD K.K., priority 2007, dated 2013).

For one experiment, the target named is T1, Wee1 kinase (Homo sapiens, UniProt P30291).
T1 construct: made in house; host or cells: Sf9 insect cells (recombinant baculovirus)
Put plainly: Wee1 kinase-inhibitory effect (33P-ATP, Poly(Lys,Tyr) substrate, filter assay). Type of experiment: biochemical. Particulars: 10 μM ATP, 30° C., 30 minutes. An excerpt: Pharmacological Test 1 (Wee1 Kinase-Inhibitory Effect)
(1) Purification of Wee1 Kinase:
A cDNA of Wee1 kinase with […] (GST) fused at the amino terminal thereof was inserted into a baculovirus expression vector to construct a recombinant baculovirus, with which cells of an insect cell line Sf9 were infected for high expression therein. The infected cells were recovered and solubilized, and then the GST-tagged Wee1 kinase protein was adsorbed by a glutathion column, and eluted from the column with glutathion, and the active fraction was desalted in a desalting column to give a purified enzyme.
(2) Determination of Wee1 Kinase Activity:
In determination of the Wee1 kinase activity, a synthetic peptide, Poly(Lys,Tyr) Hydrobromide (Lys:Tyr (4:1)) bought from Sigma was used as the substrate.
The amount of the reaction liquid was 21.1 μL; and the composition of the reaction buffer was 50 mM Tris-HCl buffer (pH 7.4)/10 mM magnesium chloride/1 mM dithiothreitol. The purified Wee1 kinase, 2.5 μg of the substrate peptide, 10 μM of non-labeled adenosine triphosphate (ATP) and 1 μCi of [γ-^33P]-labeled ATP (2500 Ci/mmol or more) were added to it, and reacted at 30° C. for 30 minutes. Next, 10 μL of 350 mM phosphate buffer was added to the reaction system to stop the reaction. The substrate peptide was adsorbed by a P81 paper filter 96-well plate, then washed a few times with 130 mM phosphate buffer, and its radioactivity was counted with a liquid scintillation counter. The [γ-^33P]-labeled ATP was bought from Amersham Bioscience.
To add the test compound to the reaction system, the compound was diluted with dimethylsulfoxide (DMSO) to prepare a series of dilutions. 1.1 μL of each dilution was added to the reaction system. As a control, 1.1 μL of DMSO was added to the reaction system.

In experiment [1] the test system is Cdc2 (Cdk1) tyrosine 15-phosphorylation in NCI-H1299 cells. Put plainly: Cdc2 (Cdk1) tyrosine 15-phosphorylation-inhibitory effect in camptothecin-treated NCI-H1299 cells (ELISA). Type of experiment: cell-based. The settings on record: Homo sapiens; NCI-H1299, camptothecin 200 nM 16 hours, then test compound + nocodazole 8 hours; read-out: Cdc2-Y15 Phosphorylation-Inhibitory Effect (H1299, + camptothecin) (EC50). An excerpt:
Pharmacological Test 2 (Method of Determining Drug Potency with Cells (Cdc2 (Cdk1) Tyrosine 15-Phosphorylation-Inhibitory Effect))
Fetal bovine serum (FBS) was obtained from Morgate; media RPMI1640 and DMEM were from Invitrogen; camptothecin was from Sigma; gemcitabine was from Nippon Eli Lilly; nocodazole and protease inhibitor cocktail were from Sigma; rabbit anti-Cdc2 antibody and mouse anti-Cdc2 antibody were from Santa Cruz Biotechnology; rabbit anti-tyrosine 15-phosphorylated Cdc2 antibody and horseradish peroxidase-labeled anti-mouse IgG antibody were from Cell Signaling Technology; sure blue reserve TMB peroxidase substrate was from Kirkegaard and Perry Laboratories.
Human non-small cell lung cancer cells (NCI-H1299) and human colon cancer cells (WiDr) were obtained from American Type Culture Collection (ATCC).
In the method of using NCI-H1299 cells, the cells were suspended in a medium of 10% FBS-added RPMI1640, and the cell suspension was applied to a 96-well Nunclondelta-processed plastic plate (bought from Nunc), in an amount of 2000 cells/100 μL/well, in which the cells were incubated overnight in 5% CO2-95% air at 37° C. Camptothecin was dissolved in dimethylsulfoxide (DMSO), and diluted with a medium of 10% FBS-added RPMI1640, and then this was applied to the plate on which the cells had been previously sowed, in an amount of 50 μL/well in such a manner that the final concentration of camptothecin could be 200 nM. Then, the cells were incubated for 16 hours at 37° C. in 5% CO2-95% air. The test compound was stepwise diluted with DMSO, then diluted with 4000 nM nocodazole-containing, 10% FBS-added RPMI1640, and applied to the plate on which the camptothecin-treated cells had been sowed, in an amount of 50 μL/well. The cells were incubated for 8 hours at 37° C. in 5% CO2-95% air, then the culture was removed, and a cytolytic buffer was added to the plate in an amount of 100 μL/well, shaken at 4° C. for 2 hours, then frozen at −80° C., and thawed to give a cell solution. Cdc2 and tyrosine 15-phosphorylated Cdc2 in the cell solution were determined through enzyme-linked immunosorbent assay (ELISA), and the ratio of tyrosine 15-phosphorylated Cdc2 to Cdc2 was calculated to obtain the 50% phosphorylation-inhibitory concentration of the test compound to the cells (EC50, nM). The cytolytic buffer used herein is an aqueous solution containing 20 mM Hepes (pH 7.5), 150 mM sodium chloride, 1 mM disodium ethylenediaminetetraacetate, 0.1% polyoxyethylene (10) octylphenyl ether, 1% protease inhibitor cocktail, 1 mM dithiothreitol, 2 mM sodium orthovanadate, 10 mM sodium fluoride and 10 mM glycerol diphosphate. Cdc2 was determined through ELISA as follows: A rabbit anti-Cdc2 antibody solution, which had been diluted 200-fold with 50 mM carbonate-bicarbonate buffer (pH 9.6), was applied to a 96-well maxisorpimmuno plate (bought from Nunc), in an amount of 50 μL/well, and statically kept overnight at 4° C. so as to fix the antibody on the plate. Next, this was washed three times with phosphate-buffered physiological saline (PBS), and 5% bovine serum albumin-containing PBS (5% BSA/PBS) was added thereto in an amount of 300 μL/well, and statically kept at room temperature for 2 hours, and then again washed three times with PBS. A mouse anti-Cdc2 antibody solution that had been diluted 100-fold with 0.05% polyoxyethylene sorbitan monolaurate and 1% BSA-containing Tris-HCl-buffered physiological saline (1% BSA/TBS-T) was added to it in an amount of 50 μL/well, and the cell solution was added thereto in an amount of 5 μL/well and statically kept overnight at 4° C. Next, this was washed three times with 0.05% polyoxyethylene sorbitan monolaurate and 0.1% BSA-containing Tris-HCl-buffered physiological saline (0.1% BSA/TBS-T), and then a horseradish peroxidase-labeled anti-mouse IgG antibody solution that had been diluted 2000-fold with 1% BSA/TBS-T was added thereto in an amount of 70 μL/well, and statically kept at room temperature for 3 hours. […]

The structures appear in SMILES notation.

T1 sequence (P30291 whole entry): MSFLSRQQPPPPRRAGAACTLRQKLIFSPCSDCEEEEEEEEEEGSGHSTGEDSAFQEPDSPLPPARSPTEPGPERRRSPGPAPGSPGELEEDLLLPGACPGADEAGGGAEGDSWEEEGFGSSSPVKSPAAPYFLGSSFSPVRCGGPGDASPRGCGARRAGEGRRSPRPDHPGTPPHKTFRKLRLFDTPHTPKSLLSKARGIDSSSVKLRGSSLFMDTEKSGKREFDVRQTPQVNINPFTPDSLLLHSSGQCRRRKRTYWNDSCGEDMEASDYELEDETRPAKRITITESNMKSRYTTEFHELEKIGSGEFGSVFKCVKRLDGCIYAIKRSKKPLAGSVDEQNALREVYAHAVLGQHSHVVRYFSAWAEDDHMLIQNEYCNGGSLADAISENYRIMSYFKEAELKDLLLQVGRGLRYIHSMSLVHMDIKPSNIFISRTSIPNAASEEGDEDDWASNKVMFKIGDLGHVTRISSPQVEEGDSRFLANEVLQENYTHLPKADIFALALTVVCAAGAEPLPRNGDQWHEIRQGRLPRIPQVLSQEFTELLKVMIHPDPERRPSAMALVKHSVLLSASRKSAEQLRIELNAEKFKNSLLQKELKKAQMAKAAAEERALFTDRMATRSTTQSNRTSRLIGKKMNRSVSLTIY

On to `CN1CCc2ccc(Nc3ncc4c(=N)n(-c5c(F)cc(F)cc5Cl)c(=O)[nH]c4n3)cc2C1` [Example 17, 3-(2-chloro-4,6-difluorophenyl)-4-imino-7-{[2-methyl-1,2,3,4-tetrahydroisoquinolin-7-yl]amino}-3,4-dihydropyrimido[4,5-d]pyrimidin-2(1H)-one], for which, at Wee1 kinase, the midpoint of inhibition, the IC50, lay at 9.2 nM. Besides, the EC50 in experiment [1] was found to be 47 nM.
Compound `CN1CCc2ccc(Nc3ncc4c(=N)n(-c5c(F)cccc5Cl)c(=O)[nH]c4n3)cc2C1` [Example 16, 3-(2-chloro-6-fluorophenyl)-4-imino-7-{[2-methyl-1,2,3,4-tetrahydroisoquinolin-7-yl]amino}-3,4-dihydropyrimido[4,5-d]pyrimidin-2(1H)-one] yielded an IC50 on Wee1 kinase of 6.8 nM. The half-maximal effective concentration (EC50) in experiment [1] stood at 50 nM.
For `CN1CCc2ccc(Nc3ncc4c(=N)n(-c5c(Cl)cccc5Cl)c(=O)[nH]c4n3)cc2CC1` [Example 48, 3-(2,6-dichlorophenyl)-4-imino-7-[(3-methyl-2,3,4,5-tetrahydro-1H-3-benzazepin-7-yl)amino]-3,4-dihydropyrimido[4,5-d]pyrimidin-2(1H)-one] the same measures were 8.6 nM and 54 nM.
On to `CN(C)C1Cc2ccc(Nc3ncc4c(=N)n(-c5c(Cl)cccc5Cl)c(=O)[nH]c4n3)cc2C1` (stereo not drawn) [Example 39], for which the IC50 on Wee1 kinase came out at 6.5 nM. The concentration giving a half-maximal response (EC50) in experiment [1] is 37 nM.
Take `Cc1cc(Nc2ncc3c(=N)n(-c4c(Cl)cccc4Cl)c(=O)[nH]c3n2)cc2c1CCN(C)C2` [Example 21, 3-(2,6-dichlorophenyl)-7-{[2,5-dimethyl-1,2,3,4-tetrahydroisoquinolin-7-yl]amino}-4-imino-3,4-dihydropyrimido[4,5-d]pyrimidin-2(1H)-one]: half-maximal inhibition against Wee1 kinase (IC50) required 4.8 nM. Also, the EC50 in experiment [1] stood at 11 nM.
Regarding `CCN1CCc2cc(Nc3ncc4c(=N)n(-c5c(Cl)cccc5Cl)c(=O)[nH]c4n3)ccc2C1` [Example 30, 3-(2,6-dichlorophenyl)-4-imino-7-{[2-ethyl-1,2,3,4-tetrahydroisoquinolin-6-yl]amino}-3,4-dihydropyrimido[4,5-d]pyrimidin-2(1H)-one], at Wee1 kinase, the IC50 was found to be 7.1 nM. Further, the EC50 in experiment [1] stood at 25 nM.
In the same order, the values of `CN(C)C1CCc2ccc(Nc3ncc4c(=N)n(-c5c(Cl)cccc5Cl)c(=O)[nH]c4n3)cc2C1` (stereo not drawn) [Example 43] are 5.1 nM and 45 nM.
In the same order, the values of `CN1CCc2ccc(Nc3ncc4c(=N)n(-c5c(Cl)cc(F)cc5Cl)c(=O)[nH]c4n3)cc2C1` [Example 18, 3-(2,6-dichloro-4-fluorophenyl)-4-imino-7-{[2-methyl-1,2,3,4-tetrahydroisoquinolin-7-yl]amino}-3,4-dihydropyrimido[4,5-d]pyrimidin-2(1H)-one] are 8.9 nM and 35 nM.
In the same order, the values of `CN(C)CC1CCc2cc(Nc3ncc4c(=N)n(-c5c(Cl)cccc5Cl)c(=O)[nH]c4n3)ccc2C1` (stereo not drawn) [Example 53] are 6.5 nM and 59 nM.
The compound `CN1CCc2cc(Nc3ncc4c(=N)n(-c5c(Cl)cccc5Cl)c(=O)[nH]c4n3)ccc2C1(C)C` [Example 4, 3-(2,6-dichlorophenyl)-4-imino-7-[(1,1,2-trimethyl-1,2,3,4-tetrahydroisoquinolin-6-yl)amino]-3,4-dihydropyrimido[4,5-d]pyrimidin-2(1H)-one] yielded an IC50 against Wee1 kinase of 8.3 nM. Besides, the EC50 in experiment [1] was 28 nM.
For `CN1Cc2cc(Nc3ncc4c(=O)n(-c5c(Cl)cccc5Cl)c(=O)[nH]c4n3)ccc2C2(CC2)C1` [Example 82, 3-(2,6-dichlorophenyl)-7-[(2′-methyl-2′,3′-dihydro-1′H-spiro[cyclopropane-1,4′-isoquinolin]-7′-yl)amino]pyrimido[4,5-d]pyrimidin-2,4(1H,3H)-dione] the same measures were 3.3 nM and 30 nM.
`CC(=O)N1CCc2cc(Nc3ncc4c(=N)n(-c5c(Cl)cccc5Cl)c(=O)[nH]c4n3)ccc2C1(C)C` [Example 79, 7-[(2-acetyl-1,1-dimethyl-1,2,3,4-tetrahydroisoquinolin-6-yl)amino]-3-(2,6-dichlorophenyl)-4-imino-3,4-dihydropyrimido[4,5-d]pyrimidin-2(1H)-one] had an IC50 at Wee1 kinase of 6.3 nM.
Regarding `Cc1cccc(Cl)c1-n1c(=O)[nH]c2nc(Nc3ccc4c(c3)CN(C)CC43CC3)ncc2c1=N` [Example 14, 3-(2-chloro-6-methylphenyl)-4-imino-7-[(2′-methyl-2′,3′-dihydro-1′H-spiro[cyclopropane-1,4′-isoquinolin]-7′-yl)amino]-3,4-dihydropyrimido[4,5-d]pyrimidin-2(1H)-one], at Wee1 kinase, the midpoint of inhibition, the IC50, lay at 10.4 nM. Further, the EC50 in experiment [1] was determined as 77 nM.
For `CN(C)C1CC(C)(C)c2ccc(Nc3ncc4c(=N)n(-c5c(Cl)cccc5Cl)c(=O)[nH]c4n3)cc21` (stereo not drawn) [Example 10], inhibition at Wee1 kinase was half-maximal at 13.1 nM (IC50). The EC50 in experiment [1] turned out to be 61 nM.
As to `CN(C)C1Cc2ccc(Nc3ncc4c(=N)n(-c5c(Cl)cccc5Cl)c(=O)n(C)c4n3)cc2C1` (stereo not drawn) [Example 9], the 50% inhibitory concentration (IC50) on Wee1 kinase was determined as 6.6 nM. Also, the EC50 in experiment [1] is 24 nM.
For `CN1CCc2cc(Nc3ncc4c(=N)n(-c5c(Cl)ccnc5Cl)c(=O)[nH]c4n3)ccc2C1(C)C` [Example 5, 3-(2,4-dichloropyridin-3-yl)-4-imino-7-{[1,1,2-trimethyl-1,2,3,4-tetrahydroisoqunolin-6-yl]amino}-3,4-dihydropyrimido[4,5-d]pyrimidin-2(1H)-one], the IC50 against Wee1 kinase was found to be 9.6 nM. Moreover, in experiment [1], the EC50 was determined as 70 nM.
Compound `Cn1c(=O)n(-c2c(Cl)cccc2Cl)c(=N)c2cnc(Nc3ccc4c(c3)CCN(CCO)C4(C)C)nc21` [Example 22, 3-(2,6-dichlorophenyl)-7-{[2-(2-hydroxyethyl)-1,1-dimethyl-1,2,3,4-tetrahydroisoquinolin-6-yl]amino}-4-imino-1-methyl-3,4-dihydropyrimido[4,5-d]pyrimidin-2(1H)-one] yielded an IC50 at Wee1 kinase of 5.2 nM. In addition, the concentration giving a half-maximal response (EC50) in experiment [1] was 16 nM.

By IC50 is commonly meant the concentration that gives 50% inhibition. One may read the EC50 as the midpoint of the concentration-response curve.
